According to US12479858B2, “Macrocyclic compounds as sting agonists and methods and uses thereof” (Lupin Limited, priority 2019, dated 2025):
Counter-ions that a name gives are not always drawn. Like-named read-outs stand apart in the source and are kept apart here.

Experiments:
[1] = Apparent solubility/extended kinetic solubility by UHPLC; assay type: physicochemical; details: aqueous buffer, thermodynamic from solid, phosphate buffer, 37° C.
Description: Biological Assay—Determination of Apparent Solubility/Extended Kinetic Solubility by UHPLC
Test sample preparation: About 0.5 mg of the test sample was weighed and transferred in duplicate in 1 mL glass inserts of 96 well plates. 5 μL of DMSO and 1 ml of phosphate buffer were added. Allowed for equilibrium in an orbital shaker at 37° C. for 24 hrs. Later, allowed it cool to room temperature and centrifuged the 96 well plate (at 240×10 RPM for 20 min) and supernatant material was taken into collection plate, covered it with the heat resistant aluminum sheet or supernatant material was directly taken into HPLC sample vial.
Injected diluent as blank and linearity solutions in duplicate. Recorded the chromatograms and plotted the calibration curve, concentration (X-axis) versus Area (y-axis). The correlation coefficient for calibration curve should be not less than 0.95. If above criteria passes, then injected the test samples and recorded the chromatograms. In case saturated peaks are observed, then diluted the test sample with diluent as appropriate.
Calculated the slope and intercept of the calibration curve. From the standard curve, determined the solubility of the sample in μM (micromolar).

[2] = Plasma and tumor compound concentrations in CT26 tumor-bearing mice (LC-MS/MS); assay type: in vivo, BALB/c mice; details: 0.375 mg/kg single i.v.; for concentration at 3.5 h: 3.5 h (Table 4); for concentration at 8 h: 8 h (Table 4); for concentration at 12 h: 12 h (Table 4)
Description: (§1) Pharmacokinetic and Pharmacodynamic Profiling and Estimation of Immune Cell Infiltration in Tumors Following Treatment with Compounds 2, 6, 8, 12 and 14
(§2) Serum and tumor cytokine levels and corresponding compound concentrations in mouse plasma were determined following single-dose intravenous administration in CT26 (murine colorectal carcinoma) tumor-bearing mice. Briefly, naïve BALB/c mice in the age group of 6-8 weeks were inoculated with 0.1 million CT-26 cells/animal in phosphate buffered saline (PBS), subcutaneously. […] Blood and tumor samples were harvested at various time points up to 24 h post-dose. Tumor samples were homogenized and prepared for cytokine estimation (ELISA) and compound concentration were determined by LC-MS/MS. Serum aliquots and tumor samples were snap-frozen and stored at −80° C. till further analysis. Serum and tumor samples were evaluated for Interferon beta (IFNβ), interleukin-6 (IL-6) and tumor necrosis factor alpha (TNFα) by enzyme linked immunosorbent assay (ELISA) using kits from R & D systems (Quantikine mouse IL-6 and TNFα kits) and PBL biosciences (Verikine mouse IFNβ kit).
Bioanalysis of plasma and tumor samples: Plasma and tumor concentrations of test compounds were determined by LC-MS/MS method. Tumor samples were homogenized utilizing a bead-based homogenizer. Plasma samples and tumor homogenates were extracted using protein precipitation method with organic solution containing respective internal standards. Plasma and tumor concentrations were determined against respective calibration curve. Table 3 indicates the concentration of Compound 2 in plasma and tumor at different administered doses. Table 4 indicates the concentration of Compounds 6, 8, 12, and 14 in plasma and tumor at different administered doses. Table 5 indicates cytokine levels for Compound 2 in serum and tumor at different doses. Table 6 indicates cytokine levels for Compounds 6, 8, 12 and 14 in serum and tumor at 0.375 mpk.

[3] = test system: Interferon beta (IFNβ), interleukin-6 (IL-6) and tumor necrosis factor alpha (TNFα); assay: Serum and tumor cytokine levels in CT26 tumor-bearing mice (ELISA); assay type: in vivo, BALB/c mice; details: 0.375 mg/kg single i.v.
Description: as §1, §2
Cytokine analysis from mouse serum samples: For IL-6 and TNFα estimation, 50 μL of test samples or internal standard or control were applied to wells in duplicates and incubated for 2 h at room temperature, followed by aspiration and washing four times with 400 μL of wash buffer. 100 μL of mouse IL-6 or TNFα conjugate solution was added and incubated further for 2 h at room temperature and followed later by 4 wash cycles. 100 μL of substrate solution was added to each well with addition of stop solution after 30 min. Optical density was measured at 450 nm averaged and was used for further calculations following subtraction of respective blank controls. Cytokine concentrations were determined by interpolating the optical density of samples into the reference standard curve utilizing four parameter logistic (4-PL) curve-fit. Cytokine concentrations were normalized with their respective dilution factors and represented in pg/mL. For IFNβ estimation, 100 μL test sample or internal standard or controls were applied to the wells in duplicates and incubated for 1 h at room temperature followed by three washes and addition of the anti-mouse IFNβ antibody solution with further 1 h incubation. This was followed by addition of horseradish peroxidase (HRP) solution and three washes, later addition of TMB substrate and reading the optical density at 450 nm. Optical densities were blank-subtracted and interpolated to the reference standard utilizing the four parameter logistic (4-PL) curve-fit. Cytokine concentrations were normalized with their respective dilution factors and represented in pg/mL. Tables 4 and 5 indicate cytokine levels for compounds 2, 6, 8, 12, and 14 in serum and tumor at different administered doses.
Cytokine analysis from tumor samples: Tumor samples were homogenized in a bead-based homogenizer and lysates were prepared with buffer supplemented with 1% Triton X-100 and protease inhibitors. Cytokine levels were estimated by ELISA and expressed as pg/g tumor.

[4] = BALB/c, mouse, plasma, intravenous, read-out: Plasma Conc.
[5] = BALB/c, mouse, tumor, intravenous, read-out: Tumor Conc.

solubility at 24 h [1]: 3.5 mM
Plasma Conc. ([2]; 24 h (Table 4)): 0.01, BLQ,
concentration at 3.5 h [2, 4]: 440 ± 140 nM
concentration at 8 h [2, 4]: 130 ± 60 nM
concentration at 12 h [2, 4]: 50 ± 10 nM
concentration at 3.5 h [2, 5]: 290 ± 120 nM
concentration at 8 h [2, 5]: 250 ± 40 nM
concentration at 12 h [2, 5]: 200 ± 50 nM
concentration at 24 h ([2]; BALB/c, mouse, tumor, intravenous, 24 h (Table 4), read-out: Tumor Conc.): 260 ± 30 nM
SMILES: CCn1nc(C)cc1C(=O)Nc1nc2cc(C(N)=O)cc3c2n1C/C=C/Cn1c(NC(=O)c2cc(C)nn2CC)nc2cc(C(=O)N[C@H]4CC[C@H](c5nnn[nH]5)CC4)cc(c21)OCCCO3 [Compound 6, (E)-N-((1R,4R)-4-(1H-tetrazol-5-yl)cyclohexyl)-1,15-bis(1-ethyl-3-methyl-1H-pyrazole-5-carboxamido)-8,9,16,19-tetrahydro-7H-6,10-dioxa-2,14,15a,19a-tetraazacyclopentadeca[3,2,1-cd:8,9,10-c′d′]diindene-4,12-dicarboxamide sodium salt]
Serum IFNβ ([3]; 3.5 h (Table 6)): 3375 ± 528.4 pg/mL
Tumor IFNβ ([3]; 3.5 h (Table 6)): 6931 ± 1236.8 pg/g tumor
Serum IFNβ ([3]; 8 h (Table 6)): 215 ± 39.9 pg/mL
Tumor IFNβ ([3]; 8 h (Table 6)): 1814 ± 369.3 pg/g tumor
Serum IFNβ ([3]; 12 h (Table 6)): BLQ
Tumor IFNβ ([3]; 12 h (Table 6)): 1916 ± 842.7 pg/g tumor
Serum IFNβ ([3]; 24 h (Table 6)): BLQ
Tumor IFNβ ([3]; 24 h (Table 6)): 506 ± 239.1 pg/g tumor
